Measured values as given in patent US7157594B2, “6-Fluorobicyclo[3.1.0]hexane derivatives” (Taisho Pharmaceutical Co., Ltd., priority 2001, dated 2007).
Read-outs that look alike come from different tables or passages of the source.

Columns and labels:
[1] = target: T1, metabotropic glutamate receptor mGluR2 (Rattus norvegicus, UniProt P31421); assay: Antagonistic effect on glutamic acid-induced inhibition of forskolin-stimulated cAMP accumulation in CHO cells stably expressing mGluR2; format: cell-based
T1 construct: expressed in transfected cells
Description: Antagonistic Effect of Test Drugs on cAMP Accumulation in CHO Cells Modified to Stably Express Metabotropic Glutamate Receptor mGluR2
Using Dulbecco's modified Eagle's medium with 10% dialyzed fetal bovine serum [1% proline, 50 units/ml penicillin, 50 μg/ml streptomycin, 2 mM L-glutamine (added before use)], CHO cells modified to stably express metabotropic glutamate receptor mGluR2 were seeded in 96-well plates at a ratio of 1.26×10^4 cells/well/0.32 cm^2/150 μl and grown at 37° C. under 5% CO2 for 2 days. The medium was then replaced by L-glutamine-free medium, and after 4 hours, the supernatant was removed by aspiration. PBS(+)-IBMX (10 mM PBS(−), 1 mM MgCl2, 1 mM CaCl2, 1 mM IBMX) was added in 150 μl aliquots and the plates were incubated for 20 minutes at 37° C. under 5% CO2. […] The dried samples were assayed for cAMP levels using a cAMP EIA kit (Amersham). The value of control samples was subtracted from each measured cAMP level.

[2] = test system: male SD rats; assay: Antidepressant effect by forced swimming test in rats; format: in vivo, rat; conditions: two i.p. injections (24 hours and 1 hour before) at 0.3, 1 or 3 mg/kg, compared to solvent group, Dunnett's test, FIGS. 1 and 2
Description: Evaluation of Antidepressant Effect by Forced Swimming Test in Rats
• (1) The animals used for this experiment were male SD rats (body weigh: 220–240 g, Charles River Japan). • (2) The test drugs used were:
Namely, the rats were placed in a cylinder containing water 30 cm deep and forced to swim for 15 minutes. After a period of 24 hours, the rats were forced again to swim for 5 minutes (actual experiment). The immobility time in this actual experiment was measured for each rat to evaluate the antidepressant effect of test drugs.
The test groups received two intraperitoneal injections (24 hours and 1 hour before the actual experiment) of LY341495 or Compound 34 in 1/15 M phosphate buffer at a dose of 0.3 mg/kg, 1 mg/kg or 3 mg/kg. The solvent group received only 1/15 M phosphate buffer by intraperitoneal route. • (4) The symbols * and ** in FIGS. 1 and 2 denote statistical significance at P<0.05 and P<0.01 by Dunnett's test, respectively, when compared to the solvent group receiving 1/15 M phosphate buffer.

[3] = read-out: IC50, concentration required for 50% antagonism of inhibitory effect of 30 μM glutamic acid on 10^-5 M forskolin-stimulated cAMP level
[4] = 30 μM glutamic acid, 10^-5 M forskolin

T1 sequence (P31421 19-872): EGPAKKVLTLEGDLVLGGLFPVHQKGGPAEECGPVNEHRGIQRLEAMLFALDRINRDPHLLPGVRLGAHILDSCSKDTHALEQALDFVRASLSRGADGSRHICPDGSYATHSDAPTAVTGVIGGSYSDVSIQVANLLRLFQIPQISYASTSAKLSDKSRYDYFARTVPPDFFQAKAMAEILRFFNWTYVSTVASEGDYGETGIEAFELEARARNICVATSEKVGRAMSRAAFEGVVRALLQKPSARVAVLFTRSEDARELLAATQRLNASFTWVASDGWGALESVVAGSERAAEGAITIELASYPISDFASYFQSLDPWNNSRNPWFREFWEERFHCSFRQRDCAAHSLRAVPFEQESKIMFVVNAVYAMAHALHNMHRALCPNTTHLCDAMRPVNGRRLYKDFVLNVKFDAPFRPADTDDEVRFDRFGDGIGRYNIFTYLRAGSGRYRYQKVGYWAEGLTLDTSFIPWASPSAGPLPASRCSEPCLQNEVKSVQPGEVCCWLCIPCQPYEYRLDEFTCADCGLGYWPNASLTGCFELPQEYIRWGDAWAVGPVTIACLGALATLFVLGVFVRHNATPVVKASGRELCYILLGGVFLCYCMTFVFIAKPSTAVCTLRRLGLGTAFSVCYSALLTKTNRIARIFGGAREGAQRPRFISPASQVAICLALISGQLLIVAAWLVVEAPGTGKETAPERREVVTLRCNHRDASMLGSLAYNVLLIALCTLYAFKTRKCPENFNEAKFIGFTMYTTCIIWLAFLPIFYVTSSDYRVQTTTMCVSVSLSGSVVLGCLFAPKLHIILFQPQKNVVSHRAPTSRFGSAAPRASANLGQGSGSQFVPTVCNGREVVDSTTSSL

Row | Structure (SMILES) | melting point | IC50 [1, 3] | IC50 [1, 4] | immobility time in forced swimming test [2]
1 | CCOC(=O)[C@@]1(N)[C@H]2[C@@H](C[C@H]1OCc1ccc(Cl)c(Cl)c1)[C@]2(F)C(=O)O | > 233 °C |  |  | 
2 | Nc1cccc(CO[C@@H]2C[C@@H]3[C@H]([C@]2(N)C(=O)O)[C@@]3(F)C(=O)O)c1 (hydrate or solvate) | > 190 °C |  |  | 
3 | CC(O[C@@H]1C[C@@H]2[C@H]([C@]1(N)C(=O)O)[C@@]2(F)C(=O)O)c1ccc2ccccc2c1 (relative stereo) [57] | > 185 °C |  |  | 
4 | CC(O[C@@H]1C[C@@H]2[C@H]([C@]1(N)C(=O)O)[C@@]2(F)C(=O)O)c1ccc2ccccc2c1 (relative stereo) [58] | > 188 °C |  |  | 
5 | CO[C@@H]1C[C@@H]2[C@H]([C@]1(N)C(=O)O)[C@@]2(F)C(=O)O [Compound 1, (1R,2R,3R,5R,6R)-2-amino-3-methoxy-6-fluorobicyclo[3.1.0]hexane-2,6-dicarboxylic acid] | > 199 °C | 229 nM |  | 
6 | N[C@]1(C(=O)O)[C@H]2[C@@H](C[C@H]1OCc1ccc(Cl)cc1)[C@]2(F)C(=O)O [Compound 22] | > 220 °C | 29.1 nM |  | 
7 | N[C@](CC1c2ccccc2Oc2ccccc21)(C(=O)O)[C@H]1C[C@@H]1C(=O)O [LY341495, (2S)-2-amino-2-((1S,2S)-2-carboxycycloprop-1-yl)-3-(9-xanthyl)propionic acid, reference compound] |  |  |  | significant dose-dependent reduction in immobility time

More lines, main results first:

Row | melting point | IC50 [1, 3] | IC50 [1, 4] | Structure (SMILES) | immobility time in forced swimming test [2]
8 | > 171 °C |  |  | COC1C[C@@H]2[C@@H]([C@@]2(F)C(=O)O)[C@]1(N)C(=O)O (stereo partly drawn) [Compound 2] | 
9 | > 248 °C |  |  | C=CCO[C@@H]1C[C@@H]2[C@H]([C@]1(N)C(=O)O)[C@@]2(F)C(=O)O [Compound 5, (1R,2R,3R,5R,6R)-2-Amino-3-(2-propenyloxy)-6-fluorobicyclo[3.1.0]hexane-2,6-dicarboxylic acid] | 
10 | > 226 °C |  | 131 nM | NC1(C(=O)O)C(OCc2ccccc2)CC2C1C2(F)C(=O)O (stereo not drawn) [Compound 6] | 
11 |  |  | 40.8 nM | NC1(C(=O)O)C(OCc2ccc(F)c(F)c2)CC2C1C2(F)C(=O)O (stereo not drawn) [Compound 28] | 
12 |  | 20 nM |  | N[C@]1(C(=O)O)[C@H]2[C@@H](C[C@H]1OCc1ccc(Cl)c(Cl)c1)[C@]2(F)C(=O)O [Compound 34, (1R,2R,3R,5R,6R)-2-amino-3-(3,4-dichlorobenzyloxy)-6-fluorobicyclo[3.1.0]hexane-2,6-dicarboxylic acid] | significant dose-dependent reduction in immobility time
13 | > 210 °C |  | 22.7 nM | NC1(C(=O)O)C(OCc2ccc3ccccc3c2)CC2C1C2(F)C(=O)O (stereo not drawn) [Compound 42] | 
14 | > 170 °C |  |  | CCCC(C)OC1C[C@@H]2[C@@H]([C@@]2(F)C(=O)O)[C@]1(N)C(=O)O (stereo partly drawn) [Compound 44] | 
15 | > 230 °C |  | 24.4 nM | NC1(C(=O)O)C(OC(c2ccccc2)c2ccccc2)CC2C1C2(F)C(=O)O (stereo not drawn) [Compound 52] | 
